System: MV-4-11 cells
Test: Gene expression microarray analysis (Affymetrix PrimeView) and GSEA
Type: cell-based, human
Set-up: RFU PODN (11730768_x_at) / Fold change /veh PODN (11730768_x_at) / RFU LINC00158 (11744669_a_at) / Fold change /veh LINC00158 (11744669_a_at) / RFU DUSP10 (11751237_a_at) / Fold change /veh DUSP10 (11751237_a_at) / RFU ID3 (11757404_x_at) / Fold change /veh ID3 (11757404_x_at) / RFU PLEKHG5 (11737974_s_at) / Fold change /veh PLEKHG5 (11737974_s_at) / RFU LRRC4B (11730491_at) / Fold change /veh LRRC4B (11730491_at) / RFU GIMAP4 (11747438_a_at) / Fold change /veh GIMAP4 (11747438_a_at) / RFU KRT8 (11758183_x_at) / Fold change /veh KRT8 (11758183_x_at) / RFU CNN1 (11734310_a_at) / Fold change /veh CNN1 (11734310_a_at) / RFU VPS37D (11726825_at) / Fold change /veh VPS37D (11726825_at) / RFU C10orf10 (11716522_x_at) / Fold change /veh C10orf10 (11716522_x_at) / RFU KIR2DL2 /// KIR2DL4 /// KIR2DL5A /// KIR2DL5B /// KIR2DS1 /// KIR2DS2 /// KIR2DS3 /// KIR2DS4 /// KIR3DL3 /// KIR3DL3 /// KIR3DS1 (11738374_at) / Fold change /veh KIR2DL2 /// KIR2DL4 /// KIR2DL5A /// KIR2DL5B /// KIR2DS1 /// KIR2DS2 /// KIR2DS3 /// KIR2DS4 /// KIR3DL3 /// KIR3DL3 /// KIR3DS1 (11738374_at) / RFU C1QL1 (11718748_at) / Fold change /veh C1QL1 (11718748_at) / RFU TMPRSS4 (11747572_a_at) / Fold change /veh TMPRSS4 (11747572_a_at) / RFU HAMP (11756126_x_at) / Fold change /veh HAMP (11756126_x_at) / RFU RNFT2 (11725882_a_at) / Fold change /veh RNFT2 (11725882_a_at) / RFU NR4A2 (11747474_a_at) / Fold change /veh NR4A2 (11747474_a_at) / RFU ABCC12 (11746883_a_at) / Fold change /veh ABCC12 (11746883_a_at) / RFU TMEM136 (11760407_x_at) / Fold change /veh TMEM136 (11760407_x_at) / RFU CLDN22 /// WWC2 (11732394_at) / Fold change /veh CLDN22 /// WWC2 (11732394_at) / RFU HLA-DPB1 (11760878_x_at) / Fold change /veh HLA-DPB1 (11760878_x_at) / RFU SPINT1 (11716480_a_at) / Fold change /veh SPINT1 (11716480_a_at) / RFU GAP43 (11754022_s_at) / Fold change /veh GAP43 (11754022_s_at) / RFU A4GNT (11735810_at) / Fold change /veh A4GNT (11735810_at) / RFU PRB3 (11715151_x_at) / Fold change /veh PRB3 (11715151_x_at) / RFU TUBB4B (11761932_at) / Fold change /veh TUBB4B (11761932_at) / RFU CAPN14 (11732068_a_at) / Fold change /veh CAPN14 (11732068_a_at) / RFU TMCC2 (11721928_a_at) / Fold change /veh TMCC2 (11721928_a_at) / RFU IRGQ (11745062_a_at) / Fold change /veh IRGQ (11745062_a_at) / RFU FAM174B (11720279_a_at) / Fold change /veh FAM174B (11720279_a_at) / RFU TMPRSS4 (11748680_a_at) / Fold change /veh TMPRSS4 (11748680_a_at) / RFU FAM212B (11763350_a_at) / Fold change /veh FAM212B (11763350_a_at) / RFU PLEKHG5 (11743358_a_at) / Fold change /veh PLEKHG5 (11743358_a_at) / RFU ZSCAN30 (11745921_a_at) / Fold change /veh ZSCAN30 (11745921_a_at) / RFU CMKLR1 (11741424_a_at) / Fold change /veh CMKLR1 (11741424_a_at) / RFU LOC101060620 /// MAPK8IP1 (11723275_at) / Fold change /veh LOC101060620 /// MAPK8IP1 (11723275_at) / RFU SPTSSB (11747773_x_at) / Fold change /veh SPTSSB (11747773_x_at) / RFU PRSS12 (11739890_at) / Fold change /veh PRSS12 (11739890_at) / RFU BIN1 (11741810_x_at) / Fold change /veh BIN1 (11741810_x_at) / RFU WNT11 (11732464_a_at) / Fold change /veh WNT11 (11732464_a_at) / RFU C10orf10 (11716521_a_at) / Fold change /veh C10orf10 (11716521_a_at) / RFU C5orf56 (11738089_at) / Fold change /veh C5orf56 (11738089_at) / RFU CYB561 (11721691_x_at) / Fold change /veh CYB561 (11721691_x_at) / RFU ANKRD19P (11752326_a_at) / Fold change /veh ANKRD19P (11752326_a_at) / RFU OR2T12 /// OR2T33 /// OR2T8 (11738714_s_at) / Fold change /veh OR2T12 /// OR2T33 /// OR2T8 (11738714_s_at) / RFU VCAN (11748164_a_at) / Fold change /veh VCAN (11748164_a_at) / RFU JSRP1 (11732532_at) / Fold change /veh JSRP1 (11732532_at) / RFU KRTAP10-11 (11738290_x_at) / Fold change /veh KRTAP10-11 (11738290_x_at) / RFU MYO3A (11730013_a_at) / Fold change /veh MYO3A (11730013_a_at) / RFU EBF3 (11725865_a_at) / Fold change /veh EBF3 (11725865_a_at) / RFU CAMK2N1 (11719241_x_at) / Fold change /veh CAMK2N1 (11719241_x_at) / RFU C5orf56 (11738088_a_at) / Fold change /veh C5orf56 (11738088_a_at) / RFU OLFML3 (11715873_a_at) / Fold change /veh OLFML3 (11715873_a_at) / RFU LOC100653217 /// NTM (11731650_a_at) / Fold change /veh LOC100653217 /// NTM (11731650_a_at) / RFU MAPK11 (11762145_a_at) / Fold change /veh MAPK11 (11762145_a_at) / RFU FIZ1 (11724087_x_at) / Fold change /veh FIZ1 (11724087_x_at) / RFU OASL (11726364_x_at) / Fold change /veh OASL (11726364_x_at) / RFU SOX15 (11748057_x_at) / Fold change /veh SOX15 (11748057_x_at) / RFU CD79A (11719716_a_at) / Fold change /veh CD79A (11719716_a_at) / RFU HIST1H1D (11736915_at) / Fold change /veh HIST1H1D (11736915_at) / RFU CASKIN2 (11723855_a_at) / Fold change /veh CASKIN2 (11723855_a_at) / RFU LOC730098 (11760151_x_at) / Fold change /veh LOC730098 (11760151_x_at) / RFU OR4N2 (11742367_at) / Fold change /veh OR4N2 (11742367_at) / RFU PRRT2 (11749266_a_at) / Fold change /veh PRRT2 (11749266_a_at) / RFU SNX32 (11753110_a_at) / Fold change /veh SNX32 (11753110_a_at) / RFU CDHR5 (11726645_a_at) / Fold change /veh CDHR5 (11726645_a_at) / RFU RCAN1 (11760418_a_at) / Fold change /veh RCAN1 (11760418_a_at) / RFU FAM167A (11723789_a_at) / Fold change /veh FAM167A (11723789_a_at) / RFU FAM26E (11764081_at) / Fold change /veh FAM26E (11764081_at) / RFU ISYNA1 (11749810_s_at) / Fold change /veh ISYNA1 (11749810_s_at) / RFU ACY1 (11761880_at) / Fold change /veh ACY1 (11761880_at) / RFU 11764098_at / Fold change /veh 11764098_at / RFU SAMD14 (11745864_x_at) / Fold change /veh SAMD14 (11745864_x_at) / RFU NPB (11741838_a_at) / Fold change /veh NPB (11741838_a_at) / RFU TMPRSS6 (11731388_a_at) / Fold change /veh TMPRSS6 (11731388_a_at) / RFU KRTAP10-2 (11738614_at) / Fold change /veh KRTAP10-2 (11738614_at) / RFU ARHGAP8 /// PRR5-ARHGAP8 (11727945_x_at) / Fold change /veh ARHGAP8 /// PRR5-ARHGAP8 (11727945_x_at) / RFU KRTAP5-7 /// NADSYN1 (11734609_at) / Fold change /veh KRTAP5-7 /// NADSYN1 (11734609_at) / RFU RASL12 (11751679_a_at) / Fold change /veh RASL12 (11751679_a_at) / RFU CDKN2B (11736163_a_at) / Fold change /veh CDKN2B (11736163_a_at) / RFU PRF1 (11729649_at) / Fold change /veh PRF1 (11729649_at) / RFU, ZNF638 /// ZNF638-IT1 / Fold change vs veh, ZNF638 /// ZNF638-IT1 / RFU, PANK3 / Fold change vs veh, PANK3 / RFU, SH3YL1 / Fold change vs veh, SH3YL1 / RFU, ZEB2 / Fold change vs veh, ZEB2 / RFU, NRIP1 / Fold change vs veh, NRIP1 / RFU, PTTG1IP / Fold change vs veh, PTTG1IP / RFU, CAPN2 / Fold change vs veh, CAPN2 / RFU, MED14 / Fold change vs veh, MED14 / RFU, SNORA58 / Fold change vs veh, SNORA58 / RFU, C1orf63 / Fold change vs veh, C1orf63 / RFU, LRRFIP1 / Fold change vs veh, LRRFIP1 / RFU, NDUFAF7 / Fold change vs veh, NDUFAF7 / RFU, SLC12A2 / Fold change vs veh, SLC12A2 / RFU, IBTK / Fold change vs veh, IBTK / RFU, ESF1 / Fold change vs veh, ESF1 / Fold change vs veh, TMEM50B / RFU, TAOK1 / Fold change vs veh, TAOK1 / RFU, ACBD3 / Fold change vs veh, ACBD3 / RFU, TMA16 / Fold change vs veh, TMA16 / RFU, RWDD3 / Fold change vs veh, RWDD3 / RFU, BCAT1 / Fold change vs veh, BCAT1 / RFU, EDEM3 / Fold change vs veh, EDEM3 / RFU, TMEM33 / Fold change vs veh, TMEM33 / RFU, WDR75 / Fold change vs veh, WDR75 / RFU, AHCTF1 / Fold change vs veh, AHCTF1 / RFU, TFRC / Fold change vs veh, TFRC / RFU, ZDHHC17 / Fold change vs veh, ZDHHC17 / RFU, NOM1 / Fold change vs veh, NOM1 / RFU, ARL8B / Fold change vs veh, ARL8B / RFU, ZBTB11 / Fold change vs veh, ZBTB11 / RFU, TAMM41 / Fold change vs veh, TAMM41 / RFU, KIAA1704 /// LOC100996395 / Fold change vs veh, KIAA1704 /// LOC100996395 / RFU, ING1 / Fold change vs veh, ING1 / RFU, TRMT61B / Fold change vs veh, TRMT61B / RFU, FUBP3 / Fold change vs veh, FUBP3 / RFU, TP53 / Fold change vs veh, TP53 / RFU, TNKS2 / Fold change vs veh, TNKS2 / RFU, ZFP14 / Fold change vs veh, ZFP14 / RFU, ACTR2 / Fold change vs veh, ACTR2 / RFU, PPP3R1 / Fold change vs veh, PPP3R1 / RFU, PIK3R1 / Fold change vs veh, PIK3R1 / RFU, HNRNPA1 / Fold change vs veh, HNRNPA1 / RFU, RNF170 / Fold change vs veh, RNF170 / RFU, ZNF28 / Fold change vs veh, ZNF28 / RFU, RNGTT / Fold change vs veh, RNGTT / RFU, OGT / Fold change vs veh, OGT / RFU, BRD1 / Fold change vs veh, BRD1 / RFU, MARS / Fold change vs veh, MARS / RFU, ZNF655 / Fold change vs veh, ZNF655 / RFU, FAHD1 / Fold change vs veh, FAHD1 / RFU, BDP1 / Fold change vs veh, BDP1 / RFU, LRRCC1 / Fold change vs veh, LRRCC1 / RFU, ARID1A / Fold change vs veh, ARID1A / RFU, ZNF146 / Fold change vs veh, ZNF146 / RFU, ZNF330 / Fold change vs veh, ZNF330 / RFU, GPN3 / Fold change vs veh, GPN3 / RFU, C9orf123 / Fold change vs veh, C9orf123 / RFU, N4BP2L2 / Fold change vs veh, N4BP2L2 / RFU, ARFIP1 / Fold change vs veh, ARFIP1 / RFU, FAM179B / Fold change vs veh, FAM179B / RFU, BCL10 / Fold change vs veh, BCL10 / RFU, UHRF1BP1L / Fold change vs veh, UHRF1BP1L / RFU, BET1 / Fold change vs veh, BET1 / RFU, CNOT2 / Fold change vs veh, CNOT2 / RFU, ZNF268 / Fold change vs veh, ZNF268 / Fold change vs veh, ZNF507 / RFU, DGCR2 / Fold change vs veh, DGCR2 / RFU, WDSUB1 / Fold change vs veh, WDSUB1 / Fold change vs veh, HSP90B1 /// MIR3652 / RFU, ADSS / Fold change vs veh, ADSS / RFU, GK / Fold change vs veh, GK / RFU, ZNF148 / Fold change vs veh, ZNF148 / RFU, TAF9 / Fold change vs veh, TAF9 / RFU, SLC1A5 / Fold change vs veh, SLC1A5 / RFU, SLMO2 / Fold change vs veh, SLMO2 / RFU, ABCC4 / Fold change vs veh, ABCC4 / RFU, LOC101060439 /// RAP1B / Fold change vs veh, LOC101060439 /// RAP1B / RFU, RFX7 / Fold change vs veh, RFX7 / RFU, GTPBP10 / Fold change vs veh, GTPBP10 / RFU, CNEP1R1 / Fold change vs veh, CNEP1R1 / RFU, BIVM-ERCC5 /// ERCC5 / Fold change vs veh, BIVM-ERCC5 /// ERCC5 / RFU, ILF3 / Fold change vs veh, ILF3 / RFU 11762660_at / Fold change /veh 11762660_at / RFU VCAN (11757783_s_at) / Fold change /veh VCAN (11757783_s_at) / RFU DDX43 (11728927_at) / Fold change /veh DDX43 (11728927_at) / RFU KRT8 (11758188_x_at) / Fold change /veh KRT8 (11758188_x_at) / RFU NKD1 (11759106_at) / Fold change /veh NKD1 (11759106_at) / RFU SRD5A1 (11742802_a_at) / Fold change /veh SRD5A1 (11742802_a_at) / RFU TPSAB1 /// TPSB2 (11721975_s_at) / Fold change /veh TPSAB1 /// TPSB2 (11721975_s_at) / RFU GSTM3 (11746129_a_at) / Fold change /veh GSTM3 (11746129_a_at) / RFU IL23R (11737362_x_at) / Fold change /veh IL23R (11737362_x_at) / RFU TMEM51 (11727254_a_at) / Fold change /veh TMEM51 (11727254_a_at) / RFU PIWIL2 (11732686_x_at) / Fold change /veh PIWIL2 (11732686_x_at) / RFU ORM1 (11744905_x_at) / Fold change /veh ORM1 (11744905_x_at) / RFU CCDC152 (11743942_at) / Fold change /veh CCDC152 (11743942_at) / RFU ECM1 (11717891_a_at) / Fold change /veh ECM1 (11717891_a_at) / RFU IL23R (11748794_a_at) / Fold change /veh IL23R (11748794_a_at) / RFU TNFAIP8L3 (11732012_x_at) / Fold change /veh TNFAIP8L3 (11732012_x_at) / RFU MBOAT4 (11741988_at) / Fold change /veh MBOAT4 (11741988_at) / RFU 11764193_at / Fold change /veh 11764193_at / RFU TMEM53 (11763286_at) / Fold change /veh TMEM53 (11763286_at) / RFU MAGEB2 (11727129_at) / Fold change /veh MAGEB2 (11727129_at) / RFU TMEM200A (11744735_a_at) / Fold change /veh TMEM200A (11744735_a_at) / RFU CCDC152 (11751479_a_at) / Fold change /veh CCDC152 (11751479_a_at) / RFU FAM211A (11726209_a_at) / Fold change /veh FAM211A (11726209_a_at) / RFU RGS16 (11746705_a_at) / Fold change /veh RGS16 (11746705_a_at) / RFU VCAN (11755009_s_at) / Fold change /veh VCAN (11755009_s_at) / RFU RHOB (11743442_s_at) / Fold change /veh RHOB (11743442_s_at) / RFU RGS16 (11720943_a_at) / Fold change /veh RGS16 (11720943_a_at) / RFU RGS16 (11720944_at) / Fold change /veh RGS16 (11720944_at) / RFU, VPS4B / Fold change vs veh, VPS4B / RFU, CREB1 / Fold change vs veh, CREB1 / RFU, DNAJC13 / Fold change vs veh, DNAJC13 / RFU, GNAQ / Fold change vs veh, GNAQ / RFU, CDK5R1 / Fold change vs veh, CDK5R1 / RFU, ZRANB3 / Fold change vs veh, ZRANB3 / RFU, CUL4A / Fold change vs veh, CUL4A / RFU, CCNY / Fold change vs veh, CCNY / RFU, UFL1 / Fold change vs veh, UFL1 / RFU, COG3 / Fold change vs veh, COG3 / RFU, DIAPH2 / Fold change vs veh, DIAPH2 / RFU, SKA2 / Fold change vs veh, SKA2 / RFU, AFF3 / Fold change vs veh, AFF3 / RFU, LMF1 / Fold change vs veh, LMF1 / RFU, IPO11 / Fold change vs veh, IPO11 / RFU, DFFB / Fold change vs veh, DFFB / RFU, FOXP1 / Fold change vs veh, FOXP1 / RFU, CARD8 / Fold change vs veh, CARD8 / RFU, STRN3 / Fold change vs veh, STRN3 / RFU, ADK / Fold change vs veh, ADK / RFU, RASSF2 / Fold change vs veh, RASSF2 / RFU, WIPF1 / Fold change vs veh, WIPF1 / RFU, LARP1B / Fold change vs veh, LARP1B / RFU, RASA1 / Fold change vs veh, RASA1 / RFU, RB1 / Fold change vs veh, RB1 / RFU, PPFIA1 / Fold change vs veh, PPFIA1 / RFU, MAT2A / Fold change vs veh, MAT2A / RFU, CCT5 / Fold change vs veh, CCT5 / RFU, WDR92 / Fold change vs veh, WDR92 / RFU, CUX1 / Fold change vs veh, CUX1 / RFU, TTC7A / Fold change vs veh, TTC7A / RFU, TMEM135 / Fold change vs veh, TMEM135 / RFU, DEPTOR / Fold change vs veh, DEPTOR / RFU, CPM / Fold change vs veh, CPM / RFU, DNAJB6 / Fold change vs veh, DNAJB6 / RFU, CACNA2D3 / Fold change vs veh, CACNA2D3 / RFU, DTX4 / Fold change vs veh, DTX4 / RFU, TFCP2 / Fold change vs veh, TFCP2 / RFU, GMCL1 /// GMCL1P1 / Fold change vs veh, GMCL1 /// GMCL1P1 / RFU, AEBP2 / Fold change vs veh, AEBP2 / RFU, SNHG1 /// SNORD22 /// SNORD25 /// SNORD26 /// SNORD27 /// SNORD28 /// SNORD29 /// SNORD31 / Fold change vs veh, SNHG1 /// SNORD22 /// SNORD25 /// SNORD26 /// SNORD27 /// SNORD28 /// SNORD29 /// SNORD31 / Fold change (Aza/veh), C12orf56 (ProbeSet 11735607_a_at) / Fold change (ACY-1035/veh), C12orf56 (ProbeSet 11735607_a_at) / Fold change (Aza/veh), FGFR1OP (ProbeSet 11751329_s_at) / Fold change (ACY-1035/veh), FGFR1OP (ProbeSet 11751329_s_at) / Fold change (Aza/veh), VPS36 (ProbeSet 11739960_a_at) / Fold change (ACY-1035/veh), VPS36 (ProbeSet 11739960_a_at) / RFU SYPL1 (11715823_x_at) / Fold change /veh SYPL1 (11715823_x_at) / RFU IGFBP7 (11715501_s_at) / Fold change /veh IGFBP7 (11715501_s_at) / RFU REEP3 (11722064_at) / Fold change /veh REEP3 (11722064_at) / RFU IGLL1 (11728026_x_at) / Fold change /veh IGLL1 (11728026_x_at): dose or concentration left out as unconfirmed
Details: MV-4-11 cells, 48 hours

SMILES: Nc1ncn([C@@H]2O[C@H](CO)[C@@H](O)[C@H]2O)c(=O)n1 [azacitidine]
- RFU PLEKHG5 (11743358_a_at): 38.46 RFU
